One assay concerns S. aureus T17. The assay can be described thus: MIC, liquid dilution test (96-well microtitre plate). The following applies: for MIC: Staphylococcus aureus, T17, read-out: MIC S. aureus T17. Type of assay: cell-based. The procedure:
(§1) The minimum inhibitory concentration (MIC) is the minimum concentration of an antibiotic with which the growth of a test microbe is inhibited over 18-24 h. The inhibitor concentration can in these cases be determined by standard microbiological methods (see, for example, The National Committee for Clinical Laboratory Standards. Methods for dilution antimicrobial susceptibility tests for bacteria that grow aerobically; approved standard-fifth edition. NCCLS document M7-A5 [ISBN 1-56238-394-9]. NCCLS, 940 West Valley Road, Suite 1400, Wayne, Pa. 19087-1898 USA, 2000). The MIC of the compounds of the invention is determined in the liquid dilution test on the 96-well microtitre plate scale. The bacterial microbes are cultivated in a minimal medium (18.5 mM Na2HPO4, 5.7 mM KH2PO4, 9.3 mM NH4Cl, 2.8 mM MgSO4, 17.1 mM NaCl, 0.033 μg/ml thiamine hydrochloride, 1.2 μg/ml nicotinic acid, 0.003 μg/ml biotin, 1% glucose, 25 μg/ml of each proteinogenic amino acid with the exception of phenylalanine; [H.-P. Kroll; unpublished]) with addition of 0.4% BH broth (test medium). In the case of Enterococcus faecium L4001, heat-inactivated fetal calf serum (FCS; GibcoBRL, Germany) is added to the test medium in a final concentration of 10%. Overnight cultures of the test microbes are diluted to an OD578 of 0.001(to 0.01 in the case of enterococci) in fresh test medium, and incubated 1:1 with dilutions of the test substances (1:2 dilution steps) in test medium (200 μl final volume). The cultures are incubated at 37° C. for 18-24 hours; enterococci in the presence of 5% CO2.
(§2) The lowest substance concentration in each case at which bacterial growth was no longer visible is defined as the MIC. […] The compounds show a graded antibacterial effect against most of the test microbes.
The S. aureus strain T17 is isolated in vivo. CFW1 mice are infected intraperitoneally with 4×10^7 S. aureus 133 cells per mouse. 0.5 h after the infection, the animals are treated intravenously with 50 mg/kg biphenomycin B. The kidneys are removed from the surviving animals on day 3 after the infection. After homogenization of the organs, the homogenates are plated out as described for RN4220Bi^R on antibiotic-free and antibiotic-containing agar plates and incubated at 37° C. overnight. […] About 20 of these colonies are tested for the biphenomycin B MIC, and a colony with an MIC of >50 μM is selected for further cultivation, and the strain is referred to as T17.

For another assay, the system named is S. aureus 133. Described as above. Format: cell-based. As to conditions: 18-24 h. The procedure:
as §1, §2

Assay [1] concerns E. faecium L4001. The assay can be described thus: MIC, alternative method, agar dilution test. As to conditions: agar dilution, 1.5% agar with 20% defibrinated horse blood, 5% CO2, 18-24 h; for MIC: Enterococcus faecium, L4001, read-out: MIC E. faecium L4001. Type of assay: cell-based, Enterococcus faecium. The procedure:
The minimum inhibitory concentration (MIC) is the minimum concentration of an antibiotic with which the growth of a test microbe is inhibited over 18-24 h. The inhibitor concentration can be determined by standard microbiological methods using modified medium in an agar dilution test (see, for example, the National Committee for Clinical Laboratory Standards. Methods for dilution antimicrobial susceptibility tests for bacteria that grow aerobically; approved standard-fifth edition. NCCLS document M7-A5 [ISBN 1-56238-394-9]. NCCLS, 940 West Valley Road, Suite 1400, Wayne, PA. 19087-1898 USA, 2000). The bacterial microbes are cultivated on 1.5% agar plates containing 20% defibrinated horse blood. The test microbes, which are incubated on Columbia blood agar plates (Becton-Dickinson) overnight, are diluted in PBS, adjusted to a microbe count of about 5×10^5 microbes/ml and placed as drops (1-3 μl) on test plates. The test substances contain various dilutions of the test substances (1:2 dilution stages). The cultures are incubated at 37° C. in the presence of 5% CO2 for 18-24 hours.
The lowest concentration of each substance at which no visible bacterial growth occurs is defined as the MIC and is reported in μg/ml.
A general note: Agar dilution tests growth on a series of plates holding different concentrations.

The test system of assay [2] is E. faecium L4001. The assay can be described thus: MIC, liquid dilution test (96-well microtitre plate). Format: cell-based, Enterococcus faecium. The procedure: as §1, §2
The subject of a further assay is S. aureus RN4220Bi^R. The assay can be described thus: Biphenomycin B MIC of the isolated resistant colony. Format: cell-based. The following applies: colony isolated in vitro. The procedure:
The S. aureus strain RN422OBi^R is isolated in vitro. […] Whereas about 1×10^7 cells grow on the antibiotic-free plate, about 100 colonies grow on the antibiotic-containing plate, corresponding to a resistance rate of 1×10^−5. Some of the colonies grown on the antibiotic-containing plate are tested for the biphenomycin B MIC. One colony with an MIC of >50 μM is selected for further use, and the strain is referred to as RN4220Bi^R.

Where [3] appears, read: Staphylococcus aureus, 133, minimal medium + 0.4% BH broth.
Where [4] appears, read: Enterococcus faecium, L4001, liquid dilution, test medium with 10% FCS, 5% CO2, 18-24 h, read-out: MIC E. faecium L4001.

≈ marks a conversion by molar mass, not a printed value.

The results in this text go back to US7655643B2, “Antibacterial macrocycles with substituted biphenyl” (AiCuris GmbH & Co. KG, priority 2003, dated 2010).

Usually MIC stands for the least concentration at which growth counts as inhibited. Regarding `NCCNC(=O)[C@@H]1Cc2cc(ccc2F)-c2ccc(O)c(c2)C[C@H](N)C(=O)N[C@@H](C[C@@H](O)CN)C(=O)N1` [Example 12], the MIC stood at 0.6 µM (≈ 0.31 µg/mL) in the assay on S. aureus T17, 0.16 µM in the assay with S. aureus 133 (setting [3]), 16 µg/mL (≈ 31 µM) in the assay on E. faecium L4001 [1] and 20 µM (≈ 10.3 µg/mL) with E. faecium L4001 [2] (setting [4]).

For the compound `NC[C@H](O)C[C@@H]1NC(=O)[C@@H](N)Cc2cc(ccc2O)-c2ccc(O)c(c2)C[C@@H](C(=O)O)NC1=O` [Biphenomycin B, biphenomycin B, reference compound], in the assay on S. aureus T17 (colony isolated in vivo from mouse kidney), the “MIC, selected colony T17” value is above 50 µM. In addition, in the assay on S. aureus T17 (liquid dilution, biphenomycin-resistant strain, 18-24 h), the “MIC S. aureus T17” value was above 25 µM. The minimum inhibitory concentration (MIC) is given as 0.1 µM in the assay with S. aureus 133 (minimal medium + 0.4% BH broth) and above 25 µM with E. faecium L4001 [2] (liquid dilution, test medium with 10% FCS, 5% CO2, 18-24 h, read-out: MIC E. faecium L4001). Besides, the “MIC, selected colony RN4220Bi^R” value in the assay on S. aureus RN4220Bi^R was above 50 µM. Moreover, the “MIC E. faecium L4001” value against E. faecium L4001 [1] is 0.5 µg/mL (≈ 1.06 µM).

Regarding `NCCNC(=O)[C@@H]1Cc2cccc(c2)-c2ccc(O)c(c2)C[C@H](N)C(=O)N[C@@H](C[C@@H](O)CN)C(=O)N1` [Example 36, (8S,11S,14S)-14-Amino-N-(2-aminoethyl)-11-[(2R) -3-amino-2-hydroxypropyl]-17-hydroxy-10,13-dioxo-9,12-diazatricyclo-[14.3.1.1^2,6]henicosa-1(20),2(21),3,5,16,18-hexaene-8-carboxamide tri(hydrotrifluoroacetate)], the MIC is 0.8 µM (≈ 0.399 µg/mL) with S. aureus T17; 0.4 µM with S. aureus 133 (setting [3]); 8 µg/mL (≈ 16 µM) with E. faecium L4001 [1]; above 25 µM in the assay with E. faecium L4001 [2] (Enterococcus faecium, L4001, read-out: MIC E. faecium L4001).

In the case of `CN1C(=O)[C@H](C[C@@H](O)CN)NC(=O)[C@@H](N)Cc2cc(ccc2O)-c2ccc(Cl)c(c2)C[C@H]1C(=O)NCC(O)CN` (stereo partly drawn) [Example 9], the minimal inhibitory concentration (MIC) in the assay with S. aureus T17 turned out to be 0.7 µM (≈ 0.404 µg/mL); in the assay with S. aureus 133 (setting [3]), 0.35 µM; in the assay on E. faecium L4001 [1] it was 16 µg/mL (≈ 27.7 µM); in the assay on E. faecium L4001 [2] (setting [4]) it was 11 µM (≈ 6.35 µg/mL).
